Source: US20180318311A1, “TRICYCLIC 2-QUINOLINONES AS ANTIBACTERIALS” (priority 2017, published 2018)
In brackets after ≈: the same amount, converted by molar mass.

How the values were obtained:
Type in all cases: cell-based
[1] = test system: S. aureus ATCC 49951 (NB01006); assay: MIC by broth microdilution, S. aureus NB01006; settings: Staphylococcus aureus, ATCC49951, CAMHB, 35° C., 20 hours, read-out: Antibacterial activity (MIC) NB01006
Summary of the method: (§1)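 Per CLSI, strains grown overnight on Mueller-Hinton agar are tested in cation-adjusted Mueller-Hinton broth at about 5×10^5 CFU/mL against serially diluted compound, 1% DMSO final. Incubation runs 20 h at 35° C; MIC is judged visually with OD600 support.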

[2] = test system: E. faecalis ATCC 29212 (NB04001); assay: MIC by broth microdilution, E. faecalis NB04001; settings: Enterococcus faecalis, ATCC29212, CAMHB, 35° C., 20 hours, read-out: Antibacterial activity (MIC) NB04001
Summary of the method: as §1

[3] = test system: E. coli ATCC 25922 (NB27001); assay: MIC by broth microdilution, E. coli NB27001; settings: Escherichia coli, ATCC25922, CAMHB, 35° C., 20 hours, read-out: Antibacterial activity (MIC) NB27001
Summary of the method: as §1

[4] = test system: P. aeruginosa NB52019, wild-type PAO1 strain; assay: MIC by broth microdilution, P. aeruginosa NB52019; settings: Pseudomonas aeruginosa, CAMHB, 35° C., 20 hours, read-out: Antibacterial activity (MIC) NB52019
Summary of the method: as §1

[5] = test system: S. pneumoniae ATCC 25922 (NB07001); assay: MIC by broth microdilution, S. pneumoniae NB07001; settings: Streptococcus pneumoniae, ATCC25922, 20 h, read-out: Antibacterial activity (MIC) NB07001
Summary of the method: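 MIC in μg/mL taken as the lowest concentration with no visible growth, checked by 600 nm reading after 20 h at 35°C, ambient air. Strains tested per CLSI microdilution in cation-adjusted Mueller-Hinton broth at about 5×10^5 CFU/mL, compounds as two-fold series, 1% DMSO final.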

[6] = test system: S. aureus NB01006-AVR005, gyrA (S84L), grlA (580F) and grlB (E471K); assay: microbe, parasite or virus in culture; settings: Staphylococcus aureus, 20 h, read-out: Antibacterial activity (MIC) NB01006-AVR005
Summary of the method: as §1

[7] = test system: S. aureus NB01080 fluoroquinolone-resistant clinical isolate; assay: MIC by broth microdilution, S. aureus NB01080; settings: Staphylococcus aureus, CAMHB, 35° C., 20 hours, read-out: Antibacterial activity (MIC) NB01080
Summary of the method: as §1

Compound | MIC [1] [mg/L] | MIC [2] [mg/L] | MIC [3] [mg/L] | MIC [4] [mg/L] | MIC [5] [mg/L] | MIC [6] [mg/L] | MIC [7] [mg/L]
C[C@H]1COc2c(N3CC[C@@H](C4(N(C)C)CC4)C3)c(F)cc3cc(C(=O)O)c(=O)n1c23 [Example 1.27, (S)-10-((R)-3-(1-(dimethylamino)cyclopropyl)pyrrolidin-1-yl)-9-fluoro-3-methyl-5-oxo-2,3-dihydro-5H-[1,4]oxazino[2,3,4-ij]quinoline-6-carboxylic acid] | 1 to 32 (≈ 2.41 to 77 µM) | 1 to 32 (≈ 2.41 to 77 µM) | 1 to 32 (≈ 2.41 to 77 µM) | > 32 | < 1 | > 32 | 1 to 32 (≈ 2.41 to 77 µM)
C[C@H]1COc2c(N3CCC4(CC3)CC(N)C4)c(F)cc3cc(C(=O)O)c(=O)n1c23 [Example 1.30, (S)-10-(2-amino-7-azaspiro[3.5]nonan-7-yl)-9-fluoro-3-methyl-5-oxo-2,3-dihydro-5H-[1,4]oxazino[2,3,4-ij]quinoline-6-carboxylic acid] | 1 to 32 (≈ 2.49 to 79.7 µM) | 1 to 32 (≈ 2.49 to 79.7 µM) | > 32 | > 32 | 1 to 32 (≈ 2.49 to 79.7 µM) | > 32 | > 32
C[C@H]1COc2c(N3Cc4cncnc4C3)c(F)cc3cc(C(=O)O)c(=O)n1c23 [Example 1.31, (S)-10-(5,7-dihydro-6H-pyrrolo[3,4-d]pyrimidin-6-yl)-9-fluoro-3-methyl-5-oxo-2,3-dihydro-5H-[1,4]oxazino[2,3,4-ij]quinoline-6-carboxylic acid] | < 1 | 1 to 32 (≈ 2.62 to 83.7 µM) | 1 to 32 (≈ 2.62 to 83.7 µM) | > 32 | < 1 | > 32 | 1 to 32 (≈ 2.62 to 83.7 µM)
C[C@H]1COc2c(N3CC[C@@H](C(C)(C)O)C3)c(F)cc3cc(C(=O)O)c(=O)n1c23 [Example 1.34, (S)-9-fluoro-10-((R)-3-(2-hydroxypropan-2-yl)pyrrolidin-1-yl)-3-methyl-5-oxo-2,3-dihydro-5H-[1,4]oxazino[2,3,4-ij]quinoline-6-carboxylic acid] | 1 to 32 (≈ 2.56 to 82 µM) | > 32 | > 32 | > 32 | > 32 | > 32 | > 32
C[C@H]1COc2c(N3CC[C@H](C4(N)CC4)C3)c(F)cc3cc(C(=O)O)c(=O)n1c23 [Example 1.35, (S)-10-((S)-3-(1-aminocyclopropyl)pyrrolidin-1-yl)-9-fluoro-3-methyl-5-oxo-2,3-dihydro-5H-[1,4]oxazino[2,3,4-ij]quinoline-6-carboxylic acid] | 1 to 32 (≈ 2.58 to 82.6 µM) | 1 to 32 (≈ 2.58 to 82.6 µM) | 1 to 32 (≈ 2.58 to 82.6 µM) | > 32 | 1 to 32 (≈ 2.58 to 82.6 µM) | > 32 | 1 to 32 (≈ 2.58 to 82.6 µM)
CN[C@@H](C)[C@@H]1CCN(c2c(F)cc3cc(C(=O)O)c(=O)n4c3c2OC[C@@H]4C)C1 [Example 1.36, (S)-9-fluoro-3-methyl-10-((R)-3-((S)-1-(methylamino)ethyl)pyrrolidin-1-yl)-5-oxo-2,3-dihydro-5H-[1,4]oxazino[2,3,4-ij]quinoline-6-carboxylic acid] | < 1 | < 1 | 1 to 32 (≈ 2.57 to 82.2 µM) | > 32 | < 1 | 1 to 32 (≈ 2.57 to 82.2 µM) | < 1
C[C@H]1COc2c(N3CC4CNCC4C3)c(F)cc3cc(C(=O)O)c(=O)n1c23 (stereo partly drawn) [Example 1.37, (3S)-9-fluoro-10-(hexahydropyrrolo[3,4-c]pyrrol-2(1H)-yl)-3-methyl-5-oxo-2,3-dihydro-5H-[1,4]oxazino[2,3,4-ij]quinoline-6-carboxylic acid] | > 32 | > 32 | > 32 | > 32 | > 32 | > 32 | > 32
CO/N=C1\CN(c2c(F)cc3cc(C(=O)O)c(=O)n4c3c2OC[C@@H]4C)CC1CN (stereo partly drawn) [Example 1.40, (3S)-10-((Z)-3-(aminomethyl)-4-(methoxyimino)pyrrolidin-1-yl)-9-fluoro-3-methyl-5-oxo-2,3-dihydro-5H-[1,4]oxazino[2,3,4-ij]quinoline-6-carboxylic acid] | 1 to 32 (≈ 2.47 to 79.1 µM) | 1 to 32 (≈ 2.47 to 79.1 µM) | 1 to 32 (≈ 2.47 to 79.1 µM) | > 32 | < 1 | 1 to 32 (≈ 2.47 to 79.1 µM) | 1 to 32 (≈ 2.47 to 79.1 µM)
CNC[C@@H]1CCN(c2c(F)cc3cc(C(=O)O)c(=O)n4c3c2OC[C@@H]4C)C1 [Example 1.41, (S)-9-fluoro-3-methyl-10-((S)-3-((methylamino)methyl)pyrrolidin-1-yl)-5-oxo-2,3-dihydro-5H-[1,4]oxazino[2,3,4-ij]quinoline-6-carboxylic acid] | < 1 | 1 to 32 (≈ 2.66 to 85.2 µM) | 1 to 32 (≈ 2.66 to 85.2 µM) | > 32 | < 1 | 1 to 32 (≈ 2.66 to 85.2 µM) | 1 to 32 (≈ 2.66 to 85.2 µM)
CC(O)C1(F)CCN(c2c(F)cc3cc(C(=O)O)c(=O)n4c3c2OC[C@@H]4C)C1 (stereo partly drawn) [Example 1.44, (3S)-9-fluoro-10-(3-fluoro-3-(1-hydroxyethyl)pyrrolidin-1-yl)-3-methyl-5-oxo-2,3-dihydro-5H-[1,4]oxazino[2,3,4-ij]quinoline-6-carboxylic acid] | < 1 | 1 to 32 (≈ 2.54 to 81.1 µM) | 1 to 32 (≈ 2.54 to 81.1 µM) | > 32 | 1 to 32 (≈ 2.54 to 81.1 µM) | > 32 | > 32
C[C@H]1COc2c(N3C[C@H]4[C@@H](C3)S(=O)(=O)C[C@@H]4N)c(F)cc3cc(C(=O)O)c(=O)n1c23 [Example 1.51, (S)-10-((3R,3aR,6aS)-3-amino-1,1-dioxidohexahydro-5H-thieno[2,3-c]pyrrol-5-yl)-9-fluoro-3-methyl-5-oxo-2,3-dihydro-5H-[1,4]oxazino[2,3,4-ij]quinoline-6-carboxylic acid] | > 32 | > 32 | > 32 | > 32 | > 32 | > 32 | > 32
C[C@H]1COc2c(N3CC[C@@H]([C@@H](N)C4CC4)C3)c(F)cc3cc(C(=O)O)c(=O)n1c23 [Example 1.52, (S)-10-((R)-3-((S)-amino(cyclopropyl)methyl)pyrrolidin-1-yl)-9-fluoro-3-methyl-5-oxo-2,3-dihydro-5H-[1,4]oxazino[2,3,4-ij]quinoline-6-carboxylic acid] | < 1 | < 1 | < 1 | > 32 | < 1 | 1 to 32 (≈ 2.49 to 79.7 µM) | < 1
C[C@H]1COc2c(N3CC[C@@H]([C@@H](N)C(F)F)C3)c(F)cc3cc(C(=O)O)c(=O)n1c23 [Example 1.53, (S)-10-((R)-3-((R)-1-amino-2,2-difluoroethyl)pyrrolidin-1-yl)-9-fluoro-3-methyl-5-oxo-2,3-dihydro-5H-[1,4]oxazino[2,3,4-ij]quinoline-6-carboxylic acid] | < 1 | < 1 | 1 to 32 (≈ 2.43 to 77.8 µM) | > 32 | < 1 | 1 to 32 (≈ 2.43 to 77.8 µM) | < 1
C[C@H]1COc2c(N3CCCN(CC(F)F)CC3)c(F)cc3cc(C(=O)O)c(=O)n1c23 [Example 1.54, (S)-10-(4-(2,2-difluoroethyl)-1,4-diazepan-1-yl)-9-fluoro-3-methyl-5-oxo-2,3-dihydro-5H-[1,4]oxazino[2,3,4-ij]quinoline-6-carboxylic acid] | 1 to 32 (≈ 2.35 to 75.2 µM) | > 32 | > 32 | > 32 | > 32 | > 32 | > 32
C[C@H]1COc2c(N3CCNC4(CC3)CC4)c(F)cc3cc(C(=O)O)c(=O)n1c23 [Example 1.55, (S)-9-fluoro-3-methyl-5-oxo-10-(4,7-diazaspiro[2.6]nonan-7-yl)-2,3-dihydro-5H-[1,4]oxazino[2,3,4-ij]quinoline-6-carboxylic acid] | 1 to 32 (≈ 2.58 to 82.6 µM) | 1 to 32 (≈ 2.58 to 82.6 µM) | 1 to 32 (≈ 2.58 to 82.6 µM) | > 32 | 1 to 32 (≈ 2.58 to 82.6 µM) | > 32 | 1 to 32 (≈ 2.58 to 82.6 µM)
C[C@H]1COc2c(N3CC[C@@H]([C@@H](N)CF)C3)c(F)cc3cc(C(=O)O)c(=O)n1c23 [Example 1.56, (S)-10-((R)-3-((R)-1-amino-2-fluoroethyl)pyrrolidin-1-yl)-9-fluoro-3-methyl-5-oxo-2,3-dihydro-5H-[1,4]oxazino[2,3,4-ij]quinoline-6-carboxylic acid] | < 1 | < 1 | < 1 | 1 to 32 (≈ 2.54 to 81.3 µM) | < 1 | 1 to 32 (≈ 2.54 to 81.3 µM) | < 1
C[C@H]1COc2c(N3CCC4(CCCN4C)CC3)c(F)cc3cc(C(=O)O)c(=O)n1c23 [Example 1.57, (S)-9-fluoro-3-methyl-10-(1-methyl-1,8-diazaspiro[4.5]decan-8-yl)-5-oxo-2,3-dihydro-5H-[1,4]oxazino[2,3,4-ij]quinoline-6-carboxylic acid] | > 32 | > 32 | 1 to 32 (≈ 2.41 to 77 µM) | > 32 | > 32 | > 32 | > 32
